≈ marks a conversion by molar mass, not a printed value.
What was measured:
[1] = Chemical stability of compositions on storage (total impurities); format: physicochemical
Source text: [No. 1 in FIG. 3b is isopropyl ((R)—((((R)-1-(6-amino-9H-purin-9-yl)propan-2-yl)oxy)methyl) (phenoxy)phosphoryl)-L-alaninate]

physchem = settings: water
[2] = cited from earlier work
[3] = Syringeability/injectability with various wetting agents; format: physicochemical; settings: 40% TAF/60% PLGA 5050, 125 mg/mL suspension, wetting agent in minimal amounts
Description: Suspending vehicles with various wetting agents were prepared. […] A formulation 40% TAF (free base, crystalline, and micronized) and 60% PLGA 5050 was used to obtain a 125 mg/mL suspension. These suspensions were evaluated for syringeability/injectability. […] Additionally, Tween 80 could accommodate sterilization via filtration.

CC(C)OC(=O)[C@H](C)N[P@](=O)(CO[C@H](C)Cn1cnc2c(N)ncnc21)Oc1ccccc1 [Free base, (S)-isopropyl-2-(((S)—((((R)-1-(6-amino-9H-purin-9-yl)propan-2-yl)oxy)methyl)(phenoxy)phosphoryl)amino)propanoate]
total impurities ([1]; 40° C./75% RH closed for 2 weeks): 2.1% | total impurities observed initially ([1]; initial): 2.1% | solubility (physchem): ~3500 µg/mL (≈ 7.35 mM)

Poly(D,L-lactide) [PDLLA]
degradation time in vivo [2]: 12-18 months

polysorbate 80 [Tween 80]
syringeability/injectability through a 20 G needle [3]: improved syringeability/injectability

Reference: patent US20220296619A1, “PHARMACEUTICAL FORMULATIONS OF TENOFOVIR ALAFENAMIDE” (priority 2019, published 2022)
